Laboratory results published in patent publication US20150374712A1, “Combinations of Dopamine D2 Receptor Blockade With Norepinephrine Reuptake Inhibition and with Norepinephrine Alpha 2 Receptor Blockade” (priority 2007, published 2015).
Entries after “also recorded” stand apart in the source; their conditions may differ.

Legend:
Syrian golden hamster [1] = test: Chronic alcohol drinking in Syrian golden hamsters (free choice of alcohol and water); assay type: in vivo, Mesocricetus auratus
Protocol: (§1) All animals were given 24 hours/day access to 10-15% alcohol and water in two separate drinking bottles. Groups of animals (n=6-10/group) received daily injections of the specific drug or drug combination or vehicle for up to 4 weeks.

Syrian golden hamster [2] = conditions: vs vehicle, Example 1 (prior art, FIG. 1, Green et al. 2004); cited from earlier work
alcohol preferring P rat = test: Initiation of alcohol drinking in alcohol-preferring P rats; assay type: in vivo
Protocol: as §1

## CN1CCN(C2=Nc3cc(Cl)ccc3Nc3ccccc32)CC1 [clozapine]
Syrian golden hamster [1]; Syrian golden hamster, chronic clozapine, Example 2, FIG. 2, unpublished data
  duration of clozapine's effect on alcohol drinking: at least 1 month

## O=C(CCCN1CCC(O)(c2ccc(Cl)cc2)CC1)c1ccc(F)cc1 [haloperidol]
Syrian golden hamster [2]
  chronic alcohol drinking: No dose of haloperidol tested had an effect on alcohol drinking; also recorded: very little effect on chronic alcohol drinking
Alcohol preferring P rat; low-dose haloperidol, Example 7, FIG. 7
  initiation of alcohol drinking: minimal ability to blunt the initiation of alcohol drinking

## Cc1nc2n(c(=O)c1CCN1CCC(c3noc4cc(F)ccc34)CC1)CCCC2 [risperidone]
Syrian golden hamster [1]; hamster, low dose of risperidone, Examples 9-10, FIGS. 9, 10
  alcohol drinking (chronic drinking): only a modest effect on alcohol drinking
Alcohol preferring P rat; low dose of risperidone, Example 11, FIG. 11
  alcohol drinking (initiation of alcohol drinking): only a modest effect on alcohol drinking
